Like-named read-outs stand apart in the source and are kept apart here.
What was measured:
[1] = system: B. bifidum MIMBb23sg DSM 32708; test: Antibiotic MIC by microdilution analysis (ISO, 2010); type: cell-based, Bifidobacterium bifidum; details: for MIC: Bifidobacterium bifidum
bifidobacteria = details: limit values provided for bifidobacteria (EFSA, 2012); cited from earlier work
[2] = DSM32708, microdilution analysis, ISO 2010, read-out: MIC of MIMBb23sg

Row | Compound | MIC [1, 2] [µg/mL] | EFSA limit values (bifidobacteria) [µg/mL] | MIC ([1]; DSM32708, read-out: MIC of MIMBb23sg) [µg/mL] | MIC of MIMBb23sg ([1]; microdilution analysis, ISO 2010) [µg/mL]
1 | CC1(C)S[C@@H]2[C@H](NC(=O)[C@H](N)c3ccccc3)C(=O)N2[C@H]1C(=O)O [ampicillin] | 0.25 | 2 |  | 
2 | O=C(N[C@H](CO)[C@H](O)c1ccc([N+](=O)[O-])cc1)C(Cl)Cl [chloramphenicol] | 2 | 4 |  | 
3 | CCC[C@@H]1C[C@@H](C(=O)N[C@@H]([C@H]2O[C@H](SC)[C@H](O)[C@@H](O)[C@H]2O)[C@H](C)Cl)N(C)C1 [clindamycin] | 0.25 |  |  | 
4 | CC[C@H]1OC(=O)[C@H](C)[C@@H](O[C@H]2C[C@@](C)(OC)[C@@H](O)[C@H](C)O2)[C@H](C)[C@@H](O[C@@H]2O[C@H](C)C[C@H](N(C)C)[C@H]2O)[C@](C)(O)C[C@@H](C)C(=O)[C@H](C)[C@@H](O)[C@]1(C)O [erythromycin] | 0.25 | 1 |  | 
5 | NC[C@H]1O[C@H](O[C@H]2[C@H](O)[C@@H](O[C@H]3O[C@H](CO)[C@@H](O)[C@H](N)[C@H]3O)[C@H](N)C[C@@H]2N)[C@H](O)[C@@H](O)[C@@H]1O [kanamycin] | 128 |  |  | 
6 | [H]/N=C(/N)N[C@H]1[C@H](O)[C@@H](O)[C@H](O[C@@H]2O[C@@H](C)[C@](O)(C=O)[C@H]2O[C@@H]2O[C@@H](CO)[C@H](O)[C@@H](O)[C@@H]2NC)[C@@H](N/C(N)=N\[H])[C@@H]1O [streptomycin] | 128 | 128 |  | 
7 | CN(C)[C@@H]1C(O)=C(C(N)=O)C(=O)[C@@]2(O)C(O)=C3C(=O)c4c(O)cccc4[C@@](C)(O)[C@H]3C[C@@H]12 [tetracycline] | 1 |  |  | 
8 | CN[C@H](CC(C)C)C(=O)N[C@H]1C(=O)N[C@@H](CC(N)=O)C(=O)N[C@H]2C(=O)N[C@H]3C(=O)N[C@H](C(=O)N[C@H](C(=O)O)c4cc(O)cc(O)c4-c4cc3ccc4O)[C@H](O)c3ccc(c(Cl)c3)Oc3cc2cc(c3O[C@@H]2O[C@H](CO)[C@@H](O)[C@H](O)[C@H]2O[C@H]2C[C@](C)(N)[C@H](O)[C@H](C)O2)Oc2ccc(cc2Cl)[C@H]1O [vancomycin] |  | 2 | 0.5 | 
9 | gentamicin |  | 64 |  | 32
